Results published in the CheMixHub ionic liquid set.

Assay: xn = mol fraction of the nth substance listed

C1CC[NH2+]C1.O=[N+]([O-])[O-] + CC1COC(=O)O1
100 kPa
Conditions	electrical conductivity [S/m]	viscosity [mPa·s]
283.15 K, x2 = 0.38	–	23
298.15 K, x2 = 0.8865	0.99	–
298.15 K, x2 = 0.8938	0.93	–
313.15 K, x2 = 0	–	21
323.15 K, x2 = 0.5	–	6.1
333.15 K, x2 = 0.7	–	3.1
333.15 K, x2 = 0.78	–	2.6
343.15 K, x2 = 0.38	–	5.2
343.15 K, x2 = 0.6	–	3.4
343.15 K, x2 = 0.7	–	2.7
353.15 K, x2 = 0	–	9.3
353.15 K, x2 = 0.6	–	2.9
353.15 K, x2 = 0.7	–	2.3

C[NH+](C)C.O=S(=O)([N-]S(=O)(=O)C(F)(F)F)C(F)(F)F + CC1COC(=O)O1
298.15 K, 101 kPa
Conditions	electrical conductivity [S/m]
x1 = 0.0001	0.003
x1 = 0.0137	0.352
x2 = 0.6243	1.61
x2 = 0.7417	1.64
x2 = 0.8037	1.53
x2 = 0.979	0.476

CC(O)C(=O)[O-].CCC[N+]1(C)CCN(C)CC1 + CC#N
298 K, 101 kPa
Conditions	electrical conductivity [S/m]
x2 = 0.824	1.63
x2 = 0.848	1.79
x2 = 0.879	1.94

C[NH+](C)C.O=S(=O)([N-]S(=O)(=O)C(F)(F)F)C(F)(F)F + CC#N
101 kPa
Conditions	electrical conductivity [S/m]
298.15 K, x2 = 0.66	4.82
303.15 K, x2 = 0.86	6.87

Cn1cc[n+](CCCN)c1.F[B-](F)(F)F + CC#N
electrical conductivity [S/m], 101 kPa, frequency 3 MHz
Conditions	x1 = 0.1001	x1 = 0.2005	x1 = 0.3	x1 = 0.399	x1 = 0.4996	x1 = 0.598	x1 = 0.6975	x1 = 0.7983	x1 = 0.8987	x1 = 1
288.15 K	1.69	1.25	0.915	0.614	0.416	0.281	0.168	0.088	0.044	0.011
293.15 K	1.94	1.49	1.103	0.749	0.519	0.35	0.211	0.117	0.062	0.018
298.15 K	2.243	1.742	1.309	0.906	0.625	0.427	0.267	0.153	0.085	0.026
303.15 K	2.56	2.036	1.535	1.08	0.746	0.515	0.329	0.195	0.112	0.04
308.15 K	2.89	2.343	1.79	1.27	0.874	0.611	0.402	0.243	0.144	0.055
313.15 K	3.24	2.68	2.06	1.48	1.021	0.721	0.487	0.301	0.182	0.072
318.15 K	3.622	3.05	2.36	1.7	1.17	0.844	0.58	0.364	0.225	0.094
323.15 K	4.04	3.46	2.68	1.938	1.344	0.982	0.692	0.437	0.276	0.124

viscosity [mPa·s], 101 kPa
Conditions	x1 = 0.1001	x1 = 0.2005	x1 = 0.3	x1 = 0.399	x1 = 0.4996	x1 = 0.598	x1 = 0.6975	x1 = 0.7983	x1 = 0.8987	x1 = 1
288.15 K	18.13	36	55.18	75.79	98.1	121.5	147	174.5	202.6	231.2
293.15 K	13.81	27.35	42.52	58.84	76.44	95.92	116.8	139.6	161.9	185.4
298.15 K	10.64	21.28	33.13	46.19	60.38	76.12	93.68	112	130.2	149.6
303.15 K	8.386	16.73	26.24	36.56	48.34	61.21	75.42	90.05	104.8	121.1
308.15 K	6.804	13.48	21.1	29.46	38.98	49.81	61.47	74.04	86.51	100.2
313.15 K	5.588	11.04	17.16	24.04	32.08	40.8	50.47	61.67	71.62	83.06
318.15 K	4.761	9.062	14.08	19.9	26.59	33.85	41.94	51.42	59.82	69.26
323.15 K	4.016	7.65	11.81	16.54	22.05	28.29	35.74	43.45	50.53	58.45

CC(=O)[O-].CCCC[P+](CCCC)(CCCC)CCCC + CC(=O)[O-].CCCC[n+]1ccn(C)c1
101 kPa
Conditions	viscosity [mPa·s]
313.15 K, x2 = 0.751	246
323.15 K, x2 = 0.5018	169.2

CC(=O)[O-].Cn1cc[nH+]c1 + CC(=O)[O-].C[NH+]1CCCC1
Conditions	viscosity [mPa·s]
298.15 K, 100 kPa, x1 = 1	6.22

CCOS(=O)(=O)[O-].CC[n+]1ccn(C)c1 + CC(=O)c1ccccc1
100 kPa, x2 = 0
Conditions	viscosity [mPa·s]
313.15 K	40
333.15 K	20.4

CC[n+]1ccn(C)c1.F[P-](F)(F)(F)(F)F + CC(C)C[C@H](N)C(=O)O + O
100 kPa
Conditions	electrical conductivity, 298.15 K [S/m]	electrical conductivity, 303.15 K [S/m]	electrical conductivity, 308.15 K [S/m]	viscosity, 298.15 K [mPa·s]	viscosity, 303.15 K [mPa·s]	viscosity, 308.15 K [mPa·s]
x2 = 0.0001802, x1 = 1.802e-05	0.011	0.0123	0.0135	0.925	0.857	0.783
x2 = 0.0001803, x1 = 5.405e-05	0.0293	0.0326	0.0354	0.94	0.862	0.788
x2 = 0.0001804, x1 = 9.008e-05	0.0464	0.0517	0.0561	0.955	0.866	0.793
x2 = 0.0004522, x1 = 1.801e-05	0.0109	0.0122	0.0133	0.933	0.864	0.791
x2 = 0.0004524, x1 = 5.403e-05	0.0295	0.0328	0.0353	0.946	0.868	0.795
x2 = 0.0004526, x1 = 9.005e-05	0.0461	0.0514	0.0557	0.962	0.876	0.802
x2 = 0.0007258, x1 = 1.801e-05	0.0111	0.0122	0.0135	0.94	0.872	0.799
x2 = 0.0007262, x1 = 5.402e-05	0.0293	0.0326	0.0351	0.957	0.879	0.805
x2 = 0.0007265, x1 = 9.003e-05	0.0458	0.051	0.0558	0.973	0.885	0.812
x2 = 0.0009976, x1 = 1.8e-05	0.0106	0.0118	0.013	0.947	0.88	0.806
x2 = 0.000998, x1 = 5.4e-05	0.0288	0.032	0.0348	0.964	0.885	0.811
x2 = 0.0009985, x1 = 9e-05	0.0451	0.0505	0.055	0.981	0.895	0.82
x2 = 0.001273, x1 = 1.8e-05	0.011	0.0122	0.0134	0.955	0.888	0.814
x2 = 0.001273, x1 = 5.399e-05	0.0285	0.0318	0.0345	0.973	0.895	0.821
x2 = 0.001274, x1 = 8.998e-05	0.0449	0.0502	0.0545	0.991	0.904	0.827
x2 = 0.001546, x1 = 1.799e-05	0.0112	0.0123	0.0136	0.961	0.895	0.822
x2 = 0.001547, x1 = 5.397e-05	0.0283	0.0315	0.0344	0.982	0.905	0.831
x2 = 0.001547, x1 = 8.995e-05	0.0445	0.0493	0.0541	1	0.912	0.841

CCCCCC[n+]1ccn(C)c1.O=[N+]([O-])[O-] + CC(C)O
viscosity [mPa·s], 100 kPa
Conditions	293.15 K	298.15 K	303.15 K	308.15 K	313.15 K	318.15 K	323.15 K
x1 = 0.0817	6.79	5	3.85	2.97	2.39	2.01	1.65
x1 = 0.1594	16	11.18	7.97	5.99	4.67	3.68	2.88
x1 = 0.2402	32	23	17	12.69	9.5	7.25	5.63
x1 = 0.3493	66	47.7	34	26.9	21	16.7	12.75
x1 = 0.4408	111	79.5	55.4	43.2	34.4	27.2	21.3
x1 = 0.5609	187	136.6	91	70	55.8	43.5	34
x1 = 0.6502	266	193	122.4	94.1	74.7	58.3	44.5
x1 = 0.7417	363	265	164.3	123.7	96	75.4	58
x1 = 0.8518	505	372	232	168.8	128.2	101.2	78.6
x1 = 0.9396	664	467	306	218	160.5	124	96.7
x1 = 1	804	545	369	258	186	140.2	110.9

CCCC[n+]1ccn(C)c1.O=[N+]([O-])[O-] + CC(C)O
100 kPa
Conditions	viscosity [mPa·s]
293.15 K, x1 = 0.1596	6.9
293.15 K, x1 = 0.6506	53
293.15 K, x1 = 0.7413	70
298.15 K, x1 = 0.1596	6
298.15 K, x1 = 0.2405	9.3
298.15 K, x1 = 0.7413	56
298.15 K, x1 = 0.8515	82
303.15 K, x1 = 0.1596	5.2
303.15 K, x1 = 0.8515	63
303.15 K, x1 = 0.9396	90
308.15 K, x1 = 0.2405	6.6
308.15 K, x1 = 0.8515	51
308.15 K, x1 = 0.9396	72
308.15 K, x1 = 1	97
313.15 K, x1 = 0.3495	9
313.15 K, x1 = 0.9396	59
313.15 K, x1 = 1	75
318.15 K, x1 = 0.2405	5.2
318.15 K, x1 = 0.3495	7.9
318.15 K, x1 = 1	56
323.15 K, x1 = 0.3495	7.2

CC[n+]1ccn(CCOC)c1.N#C[S-] + CC(C)O
viscosity [mPa·s], 100 kPa
Conditions	x1 = 0.1	x1 = 0.1998	x1 = 0.3234	x1 = 0.3998	x1 = 0.5003	x1 = 0.6	x1 = 0.697	x1 = 0.8002	x1 = 0.8991	x1 = 1
288.15 K	4.25	6.2	10.24	15.05	19.9	28.1	38.6	54.1	72.5	93.1
293.15 K	3.66	5.32	8.77	12.96	16.8	23	31.1	42.7	56.8	70.8
298.15 K	3.18	4.62	7.6	11.21	14.12	19.3	25.7	34.4	45	55.8
303.15 K	2.79	4.05	6.64	9.42	11.99	16.48	21.6	28.2	36.3	44.3
308.15 K	2.45	3.58	5.82	8.25	10.28	14.1	18.7	23.5	29.9	36
313.15 K	2.17	3.18	5.17	7.23	8.91	12.18	15.97	19.8	24.9	29.7
318.15 K	1.93	2.84	4.6	6.27	7.78	10.62	13.55	17.18	21.1	24.9
